# Laboratory results published in patent US20230123334A1, “AMINO LIPID COMPOUND, PREPARATION METHOD THEREFOR, AND APPLICATION THEREOF” (SHENZHEN SHENXIN BIOTECHNOLOGY CO., LTD., priority 2020, published 2023).
# Tested on: HEK293 cells
# Assay: Preliminary screening as mRNA vectors, EGFP mRNA transfection of HEK293 cells
# Assay type: cell-based
# Conditions: EGFP mRNA 50 ng per well, 96-well plates; percentage of GFP fluorescent cells relative to total number of cells (Hoechst)
# Outline: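 Each well of HEK293 cells received 50 ng of EGFP mRNA. Efficiency was expressed as percent GFP-expressing cells over Hoechst-defined total cell number.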
row,Compound,Absolute mRNA transfection efficiency in HEK293 cells
1,CCCCCCCCCCSc1nc(NCCN(CC)CC)nc(SCCCCCCC)n1 [Compound D7S7S10],1.7%
2,CCCCCCCCCCCSc1nc(NCCN(CC)CC)nc(SCCCCCCC)n1 [Compound D7S7S11],4.5%
3,CCCCCCCCCCCCSc1nc(NCCN(CC)CC)nc(SCCCCCCC)n1 [Compound D7S7S12],5.8%
4,CCCCCCCCCCCCCCSc1nc(NCCN(CC)CC)nc(SCCCCCCC)n1 [Compound D7S7S14],4.1%
5,CCCCCCCCCCCCCCCSc1nc(NCCN(CC)CC)nc(SCCCCCCC)n1 [Compound D7S7S15],5.4%
6,CCCCCCCCCCCCCCCCSc1nc(NCCN(CC)CC)nc(SCCCCCCC)n1 [Compound D7S7S16],10.7%
7,CCCCCCCCCCCCCCCCCCSc1nc(NCCN(CC)CC)nc(SCCCCCCC)n1 [Compound D7S7S18],7.1%
8,CCCCCCCCSc1nc(NCCCCCC)nc(NCCN(CC)CC)n1 [Compound D7S8N6],0.8%
9,CCCCCCCCSc1nc(NCCCCCCC)nc(NCCN(CC)CC)n1 [Compound D7S8N7],0.7%
10,CCCCCCCCNc1nc(NCCN(CC)CC)nc(SCCCCCCCC)n1 [Compound D7S8N8],2.5%
11,CCCCCCCCCNc1nc(NCCN(CC)CC)nc(SCCCCCCCC)n1 [Compound D7S8N9],9.5%
12,CCCCCCCCCCCNc1nc(NCCN(CC)CC)nc(SCCCCCCCC)n1 [Compound D7S8N11],9.0%
13,CCCCCCCCCCCCNc1nc(NCCN(CC)CC)nc(SCCCCCCCC)n1 [Compound D7S8N12],9.5%
14,CCCCCCCCCCCCCNc1nc(NCCN(CC)CC)nc(SCCCCCCCC)n1 [Compound D7S8N13],14.2%
15,CCCCCCCCCCCCCCCNc1nc(NCCN(CC)CC)nc(SCCCCCCCC)n1 [Compound D7S8N15],15.7%
16,CCCCCCCCCCCCCCCCNc1nc(NCCN(CC)CC)nc(SCCCCCCCC)n1 [Compound D7S8N16],16.8%
17,CCCCCCCCCCCCCCCCCCNc1nc(NCCN(CC)CC)nc(SCCCCCCCC)n1 [Compound D7S8N18],12.8%
18,CCCCCCCCSc1nc(NCCN(CC)CC)nc(SCCCCCCCC)n1 [Compound D7S8S8],25.3%
19,CCCCCCCCCSc1nc(NCCN(CC)CC)nc(SCCCCCCCC)n1 [Compound D7S8S9],11.1%
20,CCCCCCCCCCSc1nc(NCCN(CC)CC)nc(SCCCCCCCC)n1 [Compound D7S8S10],7.6%
21,CCCCCCCCCCCSc1nc(NCCN(CC)CC)nc(SCCCCCCCC)n1 [Compound D7S8S11],3.2%
22,CCCCCCCCCCCCSc1nc(NCCN(CC)CC)nc(SCCCCCCCC)n1 [Compound D7S8S12],1.3%
23,CCCCCCCCCSc1nc(NCCCCCC)nc(NCCN(CC)CC)n1 [Compound D7S9N6],0.6%

row,Compound,Absolute mRNA transfection efficiency in HEK293 cells
1,CCCCCCCCCSc1nc(NCCCCCCC)nc(NCCN(CC)CC)n1 [Compound D7S9N7],1.6%
2,CCCCCCCCCSc1nc(NCCCCCCCC)nc(NCCN(CC)CC)n1 [Compound D7S9N8],11.1%
3,CCCCCCCCCNc1nc(NCCN(CC)CC)nc(SCCCCCCCCC)n1 [Compound D7S9N9],17.8%
4,CCCCCCCCCCCNc1nc(NCCN(CC)CC)nc(SCCCCCCCCC)n1 [Compound D7S9N11],36.8%
5,CCCCCCCCCCCCNc1nc(NCCN(CC)CC)nc(SCCCCCCCCC)n1 [Compound D7S9N12],25.6%
6,CCCCCCCCCCCCCNc1nc(NCCN(CC)CC)nc(SCCCCCCCCC)n1 [Compound D7S9N13],33.4%
7,CCCCCCCCCCCCCCCNc1nc(NCCN(CC)CC)nc(SCCCCCCCCC)n1 [Compound D7S9N15],11.7%
8,CCCCCCCCCCCCCCCCNc1nc(NCCN(CC)CC)nc(SCCCCCCCCC)n1 [Compound D7S9N16],10.9%
9,CCCCCCCCCCCCCCCCCCNc1nc(NCCN(CC)CC)nc(SCCCCCCCCC)n1 [Compound D7S9N18],21.1%
10,CCCCCCCCCCSc1nc(NCCCCCC)nc(NCCN(CC)CC)n1 [Compound D7S10N6],0.6%
11,CCCCCCCCCCSc1nc(NCCCCCCC)nc(NCCN(CC)CC)n1 [Compound D7S10N7],1.2%
12,CCCCCCCCCCSc1nc(NCCCCCCCC)nc(NCCN(CC)CC)n1 [Compound D7S10N8],0.3%
13,CCCCCCCCCCSc1nc(NCCCCCCCCC)nc(NCCN(CC)CC)n1 [Compound D7S10N9],1.6%
14,CCCCCCCCCCCNc1nc(NCCN(CC)CC)nc(SCCCCCCCCCC)n1 [Compound D7S10N11],3.1%
15,CCCCCCCCCCCCNc1nc(NCCN(CC)CC)nc(SCCCCCCCCCC)n1 [Compound D7S10N12],10.6%
16,CCCCCCCCCCCCCNc1nc(NCCN(CC)CC)nc(SCCCCCCCCCC)n1 [Compound D7S10N13],13.7%
17,CCCCCCCCCCCCCCCNc1nc(NCCN(CC)CC)nc(SCCCCCCCCCC)n1 [Compound D7S10N15],2.0%
18,CCCCCCCCCCCCCCCCNc1nc(NCCN(CC)CC)nc(SCCCCCCCCCC)n1 [Compound D7S10N16],19.3%
19,CCCCCCCCCCCCCCCCCCNc1nc(NCCN(CC)CC)nc(SCCCCCCCCCC)n1 [Compound D7S10N18],25.9%
20,CCCCCCCCCCCSc1nc(NCCCCCC)nc(NCCN(CC)CC)n1 [Compound D7S11N6],4.3%
21,CCCCCCCCCCCSc1nc(NCCCCCCC)nc(NCCN(CC)CC)n1 [Compound D7S11N7],11.8%
22,CCCCCCCCCCCSc1nc(NCCCCCCCC)nc(NCCN(CC)CC)n1 [Compound D7S11N8],13.4%
23,CCCCCCCCCCCSc1nc(NCCCCCCCCC)nc(NCCN(CC)CC)n1 [Compound D7S11N9],5.0%

row,Compound,Absolute mRNA transfection efficiency in HEK293 cells
1,CCCCCCCCCCCNc1nc(NCCN(CC)CC)nc(SCCCCCCCCCCC)n1 [Compound D7S11N11],35.0%
2,CCCCCCCCCCCCNc1nc(NCCN(CC)CC)nc(SCCCCCCCCCCC)n1 [Compound D7S11N12],7.8%
3,CCCCCCCCCCCCCNc1nc(NCCN(CC)CC)nc(SCCCCCCCCCCC)n1 [Compound D7S11N13],5.8%
4,CCCCCCCCCCCCCCCNc1nc(NCCN(CC)CC)nc(SCCCCCCCCCCC)n1 [Compound D7S11N15],6.5%
5,CCCCCCCCCCCCCCCCNc1nc(NCCN(CC)CC)nc(SCCCCCCCCCCC)n1 [Compound D7S11N16],4.4%
6,CCCCCCCCCCCCCCCCCCNc1nc(NCCN(CC)CC)nc(SCCCCCCCCCCC)n1 [Compound D7S11N18],10.8%
7,CCCCCCCCCCCCSc1nc(NCCCCCC)nc(NCCN(CC)CC)n1 [Compound D7S12N6],2.1%
8,CCCCCCCCCCCCSc1nc(NCCCCCCC)nc(NCCN(CC)CC)n1 [Compound D7S12N7],13.1%
9,CCCCCCCCCCCCSc1nc(NCCCCCCCC)nc(NCCN(CC)CC)n1 [Compound D7S12N8],3.0%
10,CCCCCCCCCCCCSc1nc(NCCCCCCCCC)nc(NCCN(CC)CC)n1 [Compound D7S12N9],7.4%
11,CCCCCCCCCCCCSc1nc(NCCCCCCCCCCC)nc(NCCN(CC)CC)n1 [Compound D7S12N11],4.4%
12,CCCCCCCCCCCCNc1nc(NCCN(CC)CC)nc(SCCCCCCCCCCCC)n1 [Compound D7S12N12],3.7%
13,CCCCCCCCCCCCCNc1nc(NCCN(CC)CC)nc(SCCCCCCCCCCCC)n1 [Compound D7S12N13],4.9%
14,CCCCCCCCCCCCCCCNc1nc(NCCN(CC)CC)nc(SCCCCCCCCCCCC)n1 [Compound D7S12N15],1.3%
15,CCCCCCCCCCCCCCCCNc1nc(NCCN(CC)CC)nc(SCCCCCCCCCCCC)n1 [Compound D7S12N16],6.3%
16,CCCCCCCCCCCCCCCCCCNc1nc(NCCN(CC)CC)nc(SCCCCCCCCCCCC)n1 [Compound D7S12N18],1.1%
17,CCCCCCCCCCCCCCSc1nc(NCCCCCC)nc(NCCN(CC)CC)n1 [Compound D7S14N6],15.7%
18,CCCCCCCCCCCCCCSc1nc(NCCCCCCC)nc(NCCN(CC)CC)n1 [Compound D7S14N7],36.3%
19,CCCCCCCCCCCCCCSc1nc(NCCCCCCCC)nc(NCCN(CC)CC)n1 [Compound D7S14N8],10.8%
20,CCCCCCCCCCCCCCSc1nc(NCCCCCCCCC)nc(NCCN(CC)CC)n1 [Compound D7S14N9],29.8%
21,CCCCCCCCCCCCCCSc1nc(NCCCCCCCCCCC)nc(NCCN(CC)CC)n1 [Compound D7S14N11],17.0%
22,CCCCCCCCCCCCCCSc1nc(NCCCCCCCCCCCC)nc(NCCN(CC)CC)n1 [Compound D7S14N12],6.6%
23,CCCCCCCCCCCCCCSc1nc(NCCCCCCCCCCCCC)nc(NCCN(CC)CC)n1 [Compound D7S14N13],11.7%
